Read-outs that look alike come from different tables or passages of the source.
Experiments:
TMPRSS2 = biological target: T1, TMPRSS2 (Homo sapiens, UniProt O15393); assay: TMPRSS2 inhibition (Boc-Gln-Ala-Arg-AMC fluorogenic substrate); type: biochemical
T1 construct: The recombinant TMPRSS2 ectodomain (residues 109–492), excluding the transmembrane domain; His tag; made in house; host or cells: ExpiSf9 insect cells (baculovirus)

furin = biological target: T2, furin (Homo sapiens, UniProt P09958); assay: Furin inhibition (Furin Protease Assay Kit, fluorescence); type: biochemical
T2 construct: purchased BPS Bioscience 78040
T2 sequence (P09958 108-794): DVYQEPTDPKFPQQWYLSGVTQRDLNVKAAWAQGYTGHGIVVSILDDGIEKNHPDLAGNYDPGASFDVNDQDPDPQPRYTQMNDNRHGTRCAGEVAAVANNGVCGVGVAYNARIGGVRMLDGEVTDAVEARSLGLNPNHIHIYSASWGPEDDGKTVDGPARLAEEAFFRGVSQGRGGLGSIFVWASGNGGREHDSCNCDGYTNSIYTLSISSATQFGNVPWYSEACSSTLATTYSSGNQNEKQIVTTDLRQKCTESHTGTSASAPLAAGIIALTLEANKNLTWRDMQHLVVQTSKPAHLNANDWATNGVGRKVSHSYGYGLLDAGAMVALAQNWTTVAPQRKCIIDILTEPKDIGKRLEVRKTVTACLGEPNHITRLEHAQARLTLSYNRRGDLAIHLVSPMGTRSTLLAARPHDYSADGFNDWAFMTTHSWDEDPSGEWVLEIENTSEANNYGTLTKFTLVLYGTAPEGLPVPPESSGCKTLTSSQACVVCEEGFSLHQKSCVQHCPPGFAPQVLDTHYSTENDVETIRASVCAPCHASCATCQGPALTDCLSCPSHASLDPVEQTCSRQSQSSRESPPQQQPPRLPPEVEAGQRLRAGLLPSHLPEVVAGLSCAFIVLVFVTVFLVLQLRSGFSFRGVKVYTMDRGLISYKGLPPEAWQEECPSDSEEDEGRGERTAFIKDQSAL
Protocol: Following the protocol as described in ref ([35]) a commercial Furin Protease Assay Kit (BPS Bioscience, catalog#78040) was employed to assay furin activities. It was conducted in 20 μL reaction mixtures on a 384-well plate (PerkinElmer) comprising 0.25 ng/μL furin, 2 μM substrate, and different concentrations of inhibitors in the assay buffer with 1% DMSO from the stock solutions of compounds. Fluorescence intensity was monitored at excitation/emission wavelengths of 380/460 nm. The concentration-dependent inhibition curves of furin were fitted with the equation A(I) = A(0) x {1–[I/(I + IC50)]} using GraphPad Prism (v.9.4.0). All of the measurements were performed in triplicate to determine the averaged IC50 values and the standard deviations.

SARS-CoV-2 PL^pro = SARS-CoV-2 PL^pro (Severe acute respiratory syndrome coronavirus 2, UniProt P0DTD1); assay: PLpro inhibition (proteolytic, deubiquitinating, deISGylation activities); type: biochemical
[1] = Cytotoxicity, acid phosphatase (ACP) assay; type: cell-based; details: African green monkey
Protocol: (§1) Cytotoxicity of the compounds was determined using the acid phosphatase (ACP) assay. Vero E6 cells were seeded onto a 96-well culture plate at a concentration of 2 × 10^4 cells per well. Next day, the medium was removed, and each well was washed once with PBS before adding DMEM containing 2% FBS and different concentrations of test compounds. After 3 days of incubation at 37 °C, the medium was removed, and each well was washed once with PBS. Next, a buffer containing 0.1 M sodium acetate (pH = 5.0), 0.1% Triton X-100, and 5 mM p-nitrophenyl phosphate was added. After incubating at 37 °C for 30 min, 1 N NaOH was added to stop the reaction. The absorbance was measured using an ELISA reader (VERSAmax, Molecular Devices, Sunnyvale, CA) at a wavelength of 405 nm. The percentage of cell viability was calculated by using the following formula: Viability % = [ (At/As) × 100]%, where At and As represent the absorbance of the test compound and the solvent control, respectively. […] For each compound, the measurements were repeated at least 3 times to determine the averaged CC50 values and standard deviation.

SARS-CoV-2 RdRp = SARS-CoV-2 RdRp (Severe acute respiratory syndrome coronavirus 2, UniProt P0DTD1); assay: RdRp inhibition (nsp12/nsp7L8/nsp8 complex, ProFoldin kit); type: biochemical; details: triplicate
[2] = system: SARS-CoV-2 Delta virus (NTU92); assay: microbe, parasite or virus in culture; type: cell-based
[3] = system: SARS-CoV-2 Omicron BA.5 (NTU280); assay: Antiviral plaque reduction assay, Omicron BA.5 strain, Vero E6 cells; type: cell-based
cathepsin L = biological target: T3, cathepsin L (Homo sapiens, UniProt P07711); assay: Cathepsin L inhibition (Cathepsin L Protease Assay Kit, fluorescence); type: biochemical
T3 construct: purchased Abcam
T3 sequence (P07711 114-333): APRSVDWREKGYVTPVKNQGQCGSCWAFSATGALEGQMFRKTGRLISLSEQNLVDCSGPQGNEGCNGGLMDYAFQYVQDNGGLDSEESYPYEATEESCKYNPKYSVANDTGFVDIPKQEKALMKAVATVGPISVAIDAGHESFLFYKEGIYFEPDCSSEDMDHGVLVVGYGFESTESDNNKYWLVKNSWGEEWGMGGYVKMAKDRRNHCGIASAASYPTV
Protocol: Cathepsin L activity was determined using a commercial Cathepsin L Protease Assay Kit (Abcam, U.K.) in 20 μL reaction mixtures on a 384-well plate (PerkinElmer). Different concentrations of each inhibitor were added to the assay buffer supplied with dithiothreitol (DTT) in the kit, also containing 1% DMSO from the stock solutions of inhibitors. The fluorescence intensity was monitored for 30 min at excitation and emission wavelengths of 380/460 nm. The concentration-dependent inhibition curves of cathepsin L were fitted with the equation A(I) = A(0) x {1–[I/(I + IC50)]} using GraphPad Prism (v.9.4.0). The measurements were performed in triplicate to generate the averaged IC50 values and the standard deviations.

SARS-CoV-2 3CL^pro = SARS-CoV-2 3CL^pro (Severe acute respiratory syndrome coronavirus 2, UniProt P0DTD1); assay: 3CLpro inhibition (fluorogenic peptide); type: biochemical
recombinant ACE2 and RBD = details: at 60 μM; cited from earlier work
wild-type SARS-CoV-2 = assay: microbe, parasite or virus in culture; type: cell-based; details: Severe acute respiratory syndrome coronavirus 2, read-out: EC50 wild-type strain
Vero E6 cells = assay: Cytotoxicity, acid phosphatase (ACP) assay; type: cell-based; details: Vero E6, 3 days
Protocol: as §1

[4] = 1.3 nM TMPRSS2, 10 μM substrate, triplicate
[5] = substrate ISG15-AMC, third of three values, read-out: IC50 PL^pro, deISGylation activity
[6] = substrate Ub-AMC, second of three values, read-out: IC50 PL^pro, deubiquitinating activity
[7] = substrate Z-Arg-Leu-Arg-Gly-Gly-AMC, first of three values, read-out: IC50 PL^pro, proteolytic activity
[8] = Severe acute respiratory syndrome coronavirus 2, Vero C1008, Delta strain, plaque reduction, Vero E6, entry treatment, read-out: EC50 δ
[9] = Severe acute respiratory syndrome coronavirus 2, Vero C1008, Omicron BA.5, plaque reduction, Vero E6, read-out: EC50 ο BA.5 (converted)
[10] = 35 nM 3CL^pro, 6 μM substrate, read-out: IC50 3CL^pro
[11] = one entry for PL^pro, the three activities not told apart, read-out: IC50 PL^pro

T1 sequence (O15393 109-492 S251D/R252D/Q253D/S254D/R255K limits assumed): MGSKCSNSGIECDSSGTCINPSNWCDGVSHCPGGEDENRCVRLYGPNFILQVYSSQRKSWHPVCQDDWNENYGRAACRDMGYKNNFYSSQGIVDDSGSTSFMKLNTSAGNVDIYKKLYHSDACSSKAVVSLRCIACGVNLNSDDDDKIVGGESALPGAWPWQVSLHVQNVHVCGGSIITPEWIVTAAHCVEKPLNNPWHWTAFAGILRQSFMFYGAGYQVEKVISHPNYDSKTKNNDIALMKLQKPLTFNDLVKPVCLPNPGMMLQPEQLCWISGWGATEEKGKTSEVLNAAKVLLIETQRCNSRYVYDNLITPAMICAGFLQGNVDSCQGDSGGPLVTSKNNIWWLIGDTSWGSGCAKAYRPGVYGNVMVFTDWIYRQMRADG

## O=c1c(O)cc([C@H]2Oc3cc(O)cc(O)c3C[C@H]2O)cc2c([C@H]3Oc4cc(O)cc(O)c4C[C@H]3O)cc(O)c(O)c12 [theaflavin]
TMPRSS2; [4]
  IC50: > 100 µM
furin; triplicate, mean ± SD
  IC50: > 100 µM
SARS-CoV-2 PL^pro; [5]
  IC50: 11.2 ± 1.3 µM
SARS-CoV-2 PL^pro; [6]
  IC50: 10.6 ± 0.9 µM
SARS-CoV-2 PL^pro; [7]
  IC50: 9.9 ± 0.9 µM
[1]
  CC50 at 3 days: 66.4 ± 3.2 µM
SARS-CoV-2 RdRp
  IC50: 40.2 ± 2.3 µM
[2]; [8]
  EC50: 7.4 ± 0.1 µM
[3]; [9]
  EC50: 2.2 µM
Cathepsin L; triplicate, mean ± SD
  IC50: 11.1 ± 1.1 µM
SARS-CoV-2 3CL^pro; [10]
  IC50: 16.1 ± 2.5 µM

## O=C(O[C@@H]1Cc2c(O)cc(O)cc2O[C@@H]1c1cc(O)c(=O)c2c(O)c(O)c(O)cc2c1)c1cc(O)c(O)c(O)c1 [epitheaflagallin-3-O-gallate]
TMPRSS2; [4]
  IC50: 35.3 ± 2.7 µM
furin; triplicate, mean ± SD
  IC50: 55 ± 6.5 µM
SARS-CoV-2 PL^pro; [11]
  IC50: > 100 µM
[1]
  CC50 at 3 days: 109 ± 45.3 µM
SARS-CoV-2 RdRp
  IC50: > 100 µM
[2]; [8]
  EC50: 0.5 ± 0.1 µM
[3]; [9]
  EC50: 0.6 µM
Cathepsin L; triplicate, mean ± SD
  IC50: > 100 µM
SARS-CoV-2 3CL^pro; [10]
  IC50: 31.2 ± 2.6 µM

## O=C(O[C@@H]1Cc2c(O)cc(O)cc2O[C@@H]1c1cc(O)c(=O)c2c(O)c(O)cc([C@H]3Oc4cc(O)cc(O)c4C[C@H]3OC(=O)c3cc(O)c(O)c(O)c3)c2c1)c1cc(O)c(O)c(O)c1 [TF3, theaflavin-3,3′-digallate]
Recombinant ACE2 and RBD
  inhibition of the interaction between recombinant ACE2 and RBD: effectively inhibiting
[1]
  CC50 at 3 days: > 100 µM
[2]; Severe acute respiratory syndrome coronavirus 2, Vero C1008
  EC50: 0.2 µM
wild-type SARS-CoV-2
  EC50: 0.3 µM
[3]; Severe acute respiratory syndrome coronavirus 2, Vero C1008, read-out: EC50 ο BA.5
  EC50: 0.2 µM

## Oc1cc(O)c2c(c1)OC(c1ccc(O)c(O)c1)C(O)C2 (stereo not shown) [catechin]
TMPRSS2; [4]
  IC50: > 100 µM
furin; triplicate, mean ± SD
  IC50: > 100 µM
SARS-CoV-2 PL^pro; [5]
  IC50: 17.8 ± 2.2 µM
SARS-CoV-2 PL^pro; [6]
  IC50: 24.6 ± 3.3 µM
SARS-CoV-2 PL^pro; [7]
  IC50: 18.7 ± 3.5 µM
[1]; Vero E6 cells, Vero E6, 3 days, read-out: CC50
  CC50 at 3 days: 107 µM
SARS-CoV-2 RdRp
  IC50: > 100 µM
[2]; [8]
  EC50: > 10 µM
[2]; at 10 μM
  inhibition of Delta SARS-CoV-2: did not inhibit
[3]; [9]
  EC50: > 10 µM
Cathepsin L; triplicate, mean ± SD
  IC50: > 100 µM
SARS-CoV-2 3CL^pro
  IC50: > 100 µM
SARS-CoV-2 3CL^pro; in words
  inhibition against 3CL^pro: no inhibition

## O=C(O[C@@H]1Cc2c(O)cc(O)cc2O[C@@H]1c1cc(O)c(=O)c2c(O)c(O)cc([C@H]3Oc4cc(O)cc(O)c4C[C@H]3O)c2c1)c1cc(O)c(O)c(O)c1 [theaflavin-3-gallate]
TMPRSS2; [4]
  IC50: 48.7 ± 3 µM
furin; triplicate, mean ± SD
  IC50: 36.7 ± 5.7 µM
SARS-CoV-2 PL^pro; [11]
  IC50: > 100 µM
[1]
  CC50 at 3 days: > 100 µM
SARS-CoV-2 RdRp
  IC50: > 100 µM
[2]; [8]
  EC50: 0.4 µM
[3]; [9]
  EC50: 0.4 µM
Cathepsin L; triplicate, mean ± SD
  IC50: > 100 µM
SARS-CoV-2 3CL^pro; [10]
  IC50: 8.8 ± 0.8 µM

## proanthocyanidin
TMPRSS2
  IC50: 47 ± 4.6 µM
furin
  IC50: > 100 µM
SARS-CoV-2 PL^pro; [5]
  IC50: 7.3 ± 0.6 µM
SARS-CoV-2 PL^pro; [6]
  IC50: 3.3 ± 0.4 µM
SARS-CoV-2 PL^pro; [7]
  IC50: 2.4 ± 0.3 µM
Vero E6 cells
  CC50: > 100 µM
SARS-CoV-2 RdRp
  IC50: 23.4 ± 1.3 µM
[2]; Delta strain, plaque reduction, Vero E6, entry treatment, read-out: EC50 δ
  EC50: 0.5 ± 0.1 µM
[3]; Omicron BA.5, plaque reduction, Vero E6, read-out: EC50 ο BA.5 (converted)
  EC50: 0.2 µM
Cathepsin L
  IC50: > 100 µM
SARS-CoV-2 3CL^pro; read-out: IC50 3CL^pro
  IC50: 18.4 ± 1.1 µM

## O=C(O[C@@H]1Cc2c(O)cc(O)cc2O[C@@H]1c1cc(O)c(O)c2c(=O)c(O)cc([C@H]3Oc4cc(O)cc(O)c4C[C@H]3O)cc12)c1cc(O)c(O)c(O)c1 [theaflavin-3′-gallate]
TMPRSS2; [4]
  IC50: 6.2 ± 0.6 µM
furin; triplicate, mean ± SD
  IC50: 58.5 ± 6.4 µM
SARS-CoV-2 PL^pro; [11]
  IC50: > 100 µM
[1]
  CC50 at 3 days: 69.9 ± 12.9 µM
SARS-CoV-2 RdRp
  IC50: 23.2 ± 0.4 µM
[2]; [8]
  EC50: 0.8 ± 0.1 µM
[3]; [9]
  EC50: 0.4 µM
Cathepsin L; triplicate, mean ± SD
  IC50: 51.1 ± 2.2 µM
SARS-CoV-2 3CL^pro; [10]
  IC50: 6.7 ± 0.8 µM

From paper PMC11154727, “Systematic Studies on the Anti-SARS-CoV-2 Mechanisms of Tea Polyphenol-Related Natural Products” (ACS Omega, 2024)
